# Test results as given in PubChem BioAssay (NCI).
#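 These data come from cells grown in 96-well plates and exposed to compound for 48 hours at five concentrations. Here, GI50 denotes the concentration required for 50% inhibition of growth. TGI: total growth inhibition.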
# Tests used:
# Assay in all cases: inhibition of tumour cell growth, NCI panel, 48 h
# [1] = system: 786-0 renal
# [2] = system: A498 renal
# [3] = system: A549 NSCLC
# [4] = system: ACHN renal
# [5] = system: BT-549 breast
# [6] = system: CAKI-1 renal
# [7] = system: CCRF-CEM leukemia
# [8] = system: COLO 205 colon
# [9] = system: DU-145 prostate
# [10] = system: EKVX NSCLC
# [11] = system: HCC-2998 colon
# [12] = system: HCT-116 colon
# [13] = system: HCT-15 colon
# [14] = system: HL-60(TB) leukemia
# [15] = system: HOP-62 NSCLC
# [16] = system: HOP-92 NSCLC
# [17] = system: HS 578T breast
# [18] = system: HT29 colon
# [19] = system: IGROV1 ovarian
# [20] = system: K-562 leukemia
# [21] = system: KM12 colon
# [22] = system: LOX IMVI melanoma
# [23] = system: M14 melanoma
# [24] = system: MALME-3M melanoma
# [25] = system: MCF7 breast
# [26] = system: MDA-MB-231 breast
# [27] = system: MDA-MB-435
# [28] = system: MDA-MB-468 breast
# [29] = system: NCI-H226 lung
# [30] = system: NCI-H23 lung
# [31] = system: NCI-H460 lung
# [32] = system: NCI-H522 lung
# [33] = system: NCI/ADR-RES ovarian
# [34] = system: OVCAR-3 ovarian
# [35] = system: OVCAR-4 ovarian
# [36] = system: OVCAR-5 ovarian
# [37] = system: OVCAR-8 ovarian
# [38] = system: PC-3 prostate
# [39] = system: RPMI-8226 leukemia
# [40] = system: RXF 393 renal
# [41] = system: SF-268 CNS
# [42] = system: SF-295 CNS
# [43] = system: SF-539 CNS
# [44] = system: SK-MEL-2 melanoma
# [45] = system: SK-MEL-28 melanoma
# [46] = system: SK-MEL-5 melanoma
# [47] = system: SK-OV-3 ovarian
# [48] = system: SN12C renal
# [49] = system: SNB-19 CNS
# [50] = system: SNB-75 CNS
# [51] = system: SR leukemia
# [52] = system: SW-620 colon
# [53] = system: T-47D breast
# [54] = system: TK-10 renal
# [55] = system: U251 CNS
# [56] = system: UACC-257 melanoma
# [57] = system: UACC-62 melanoma
# [58] = system: UO-31 renal
smiles,measurement,setting,value
CC/C(=C(/c1ccc(O)cc1)c1ccc(OCCN(C)C(=O)COCCOCCNC(=O)Cc2ccc3c(c2)CN([C@@H]2CCC(=O)NC2=O)C3=O)cc1)c1ccccc1,GI50,[1],25.6 µM
same,TGI,[1],> 100 µM
same,GI50,[2],> 100 µM
same,TGI,[2],> 100 µM
same,GI50,[3],> 34.7 µM
same,TGI,[3],> 100 µM
same,GI50,[4],> 100 µM
same,TGI,[4],> 100 µM
same,GI50,[5],0.0554 µM
same,TGI,[5],0.509 µM
same,GI50,[6],> 26.8 µM
same,TGI,[6],> 100 µM
same,GI50,[7],0.132 µM
same,TGI,[7],> 100 µM
same,GI50,[8],0.702 µM
same,TGI,[8],8.99 µM
same,GI50,[9],> 53 µM
same,TGI,[9],> 100 µM
same,TGI,[10],> 100 µM
same,GI50,[11],2.16 µM
same,TGI,[11],> 35.3 µM
same,GI50,[12],> 46.9 µM
same,TGI,[12],> 84 µM
same,GI50,[13],> 28 µM
same,TGI,[13],> 100 µM
same,GI50,[14],< 0.0208 µM
same,GI50,[15],1.12 µM
same,TGI,[15],10.1 µM
same,GI50,[16],0.0677 µM
same,TGI,[16],1.8 µM
same,GI50,[17],0.427 µM
same,TGI,[17],> 25.2 µM
same,GI50,[18],> 29.8 µM
same,TGI,[18],> 100 µM
same,GI50,[19],0.166 µM
same,TGI,[19],> 24.8 µM
same,GI50,[20],7.91 µM
same,TGI,[20],> 100 µM
same,GI50,[21],2.98 µM
same,TGI,[21],> 47.3 µM
same,GI50,[22],> 37.1 µM
same,TGI,[22],> 59.9 µM
same,GI50,[23],7.95 µM
same,TGI,[23],> 100 µM
same,GI50,[24],0.112 µM
same,TGI,[24],1.01 µM
same,GI50,[25],< 0.0192 µM
same,TGI,[25],> 40 µM
same,GI50,[26],0.0438 µM
same,TGI,[26],0.173 µM
same,GI50,[27],15.7 µM
same,TGI,[27],> 50.7 µM
same,GI50,[28],< 0.0167 µM
same,TGI,[28],0.214 µM
same,GI50,[29],1.68 µM
same,TGI,[29],> 44.4 µM
same,GI50,[30],> 40.6 µM
same,TGI,[30],> 68.9 µM
same,GI50,[31],> 56.7 µM
same,TGI,[31],> 100 µM
same,GI50,[32],> 33.1 µM
same,TGI,[32],> 53.1 µM
same,GI50,[33],> 100 µM
same,TGI,[33],> 100 µM
same,GI50,[34],10.3 µM
same,TGI,[34],> 53 µM
same,GI50,[35],13.6 µM
same,TGI,[35],> 100 µM
same,GI50,[36],13 µM
same,TGI,[36],> 100 µM
same,GI50,[37],0.939 µM
same,TGI,[37],> 100 µM
same,GI50,[38],0.407 µM
same,TGI,[38],> 100 µM
same,GI50,[39],3.35 µM
same,TGI,[39],> 32.3 µM
same,GI50,[40],3.25 µM
same,TGI,[40],> 30.7 µM
same,GI50,[41],3 µM
same,TGI,[41],> 100 µM
same,GI50,[42],> 31.3 µM
same,TGI,[42],> 100 µM
same,GI50,[43],> 32.6 µM
same,TGI,[43],> 49.2 µM
same,GI50,[44],1.14 µM
same,TGI,[44],9.32 µM
same,GI50,[45],6.19 µM
same,TGI,[45],> 44 µM
same,GI50,[46],7.88 µM
same,TGI,[46],> 28.2 µM
same,GI50,[47],3.57 µM
same,TGI,[47],> 100 µM
same,GI50,[48],1.01 µM
same,TGI,[48],> 43 µM
same,GI50,[49],1.11 µM
same,TGI,[49],> 87 µM
same,GI50,[50],0.0486 µM
same,TGI,[50],13.9 µM
same,GI50,[51],10 µM
same,TGI,[51],> 44.9 µM
same,GI50,[52],0.49 µM
same,TGI,[52],> 40.1 µM
same,GI50,[53],< 0.0166 µM
same,TGI,[53],1.48 µM
same,GI50,[54],> 100 µM
same,TGI,[54],> 100 µM
same,GI50,[55],> 35.3 µM
same,TGI,[55],> 74.7 µM
same,GI50,[56],> 44.7 µM
same,TGI,[56],> 76 µM
same,GI50,[57],> 31.3 µM
same,TGI,[57],> 54.1 µM
same,GI50,[58],> 100 µM
same,TGI,[58],> 100 µM
